Reference: patent US8642618B2, “Carbostyril derivatives including cilostazol for treating fatty liver” (Otsuka Pharmaceutical Co., Ltd., priority 2007, dated 2014)

System: Fisher 344 rats fed a choline-deficiented, L-amino acid-defined (CDAA) diet (animal model for fatty liver)
Assay: CDAA diet rat model for fatty liver: liver staining for lipid droplets and serum triglyceride
Type: in vivo
Procedure: Fisher 344 rats were fed only a general diet or a choline-deficiented, L-amino acid-defined (CDAA) diet to prepare a control group and a CDAA group as an animal model for fatty liver, respectively. Three medicament-treated groups were prepared by administering the following three medicaments to the CDAA groups every day. (Aspirin and ticlopidine are medicaments having the same platelet aggregation inhibitory action as cilostazol.)
In addition, the amount of triglyceride in the liver as well as the serum level of triglyceride in those rats were measured.

For `O=C1CCc2cc(OCCCCc3nnnn3C3CCCCC3)ccc2N1` [cilostazol, 6-[4-(1-cyclohexyl-1H-tetrazol-5-yl)butoxy]-3,4-dihydrocarbostyril], the “lipid droplet of liver (Hematoxylin-eosin staining and Masson staining)” value (CDAA diet + 6 mg/kg every day for 6 weeks, compared with CDAA group without cilostazol and with aspirin (5 mg/kg) / ticlopidine (10 mg/kg) groups, FIG. 1-9) was “markedly less” and the “serum level of triglyceride” value (CDAA diet + 6 mg/kg every day, 6 weeks after start of administration, compared with control group and other medicaments-treated groups, FIG. 10) was “significantly lower”.
